Measured values as given in ChEMBL document CHEMBL1201862, “PubChem BioAssay data set” (2004).
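All cell lines were grown in 96-well plates and treated with compound for 48 hours. GI50 marks 50% less growth.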 Active and inactive are the calls of the source. Cut-off read from the data, not from the text of the source: active = GI50 up to about 1.1 µM and inactive = higher.

Assays:
Assay in all cases: NCI-60 cell line screen, 48 h
OVCAR-5 = test system: OVCAR-5
NCI-H226 = test system: NCI-H226
HL-60 = test system: HL-60
HCT-15 = test system: HCT-15
HOP-62 = test system: HOP-62
EKVX = test system: EKVX
SF-295 = test system: SF-295
NCI/ADR-RES = test system: NCI/ADR-RES
SK-MEL-5 = test system: SK-MEL-5
786-0 = test system: 786-0
TK-10 = test system: TK-10
K562 = test system: K562
SK-MEL-28 = test system: SK-MEL-28
OVCAR-3 = test system: OVCAR-3
ACHN = test system: ACHN
Malme-3M = test system: Malme-3M
UACC-62 = test system: UACC-62
SR = test system: SR
DU-145 = test system: DU-145
HCC 2998 = test system: HCC 2998

| SMILES | GI50 (OVCAR-5) | GI50 (NCI-H226) | GI50 (HL-60) | GI50 (HCT-15) [µM] | GI50 (HOP-62) | GI50 (EKVX) | GI50 (SF-295) | GI50 (NCI/ADR-RES) | GI50 (SK-MEL-5) | GI50 (786-0) | GI50 (TK-10) | GI50 (K562) | GI50 (SK-MEL-28) | GI50 (OVCAR-3) | GI50 (ACHN) | GI50 (Malme-3M) | GI50 (UACC-62) | GI50 (SR) | GI50 (DU-145) | GI50 (HCC 2998) |
| --- | --- | --- | --- | --- | --- | --- | --- | --- | --- | --- | --- | --- | --- | --- | --- | --- | --- | --- | --- | --- |
| O=C(O)c1nnsc1-c1csnn1 | > 100 µM (inactive) | > 100 µM (inactive) | > 100 µM (inactive) | > 100 | > 100 µM (inactive) | > 100 µM (inactive) | > 100 µM (inactive) | > 100 µM (inactive) | > 100 µM (inactive) | > 100 µM (inactive) | 74.8 µM (inactive) | > 100 µM (inactive) | > 100 µM (inactive) | > 100 µM (inactive) | > 100 µM (inactive) | > 100 µM (inactive) | > 100 µM (inactive) | 54.6 µM (inactive) | > 100 µM (inactive) |  |
| N#CC(c1ccccc1)(c1ccccc1)[C@@H](c1ccccc1)[C@H](Cc1ccccc1)NS(=O)(=O)c1ccccc1 | > 100 µM (inactive) |  | 4.17 µM (inactive) | > 100 | > 100 µM (inactive) | > 100 µM (inactive) | > 100 µM (inactive) | > 100 µM (inactive) | 96.2 µM (inactive) | > 100 µM (inactive) | > 100 µM (inactive) | > 100 µM (inactive) | > 100 µM (inactive) | > 100 µM (inactive) | > 100 µM (inactive) | > 100 µM (inactive) | > 100 µM (inactive) | 83.9 µM (inactive) | > 100 µM (inactive) | > 100 µM (inactive) |
| C[C@H]1C(=O)C2=C[C@H]1CCC(=O)[C@]1(C)CCCC(C)(C)[C@H]1C[C@H]2O | 25.4 µM (inactive) | 19.7 µM (inactive) | 16 µM (inactive) | 14.3 | 97.5 µM (inactive) | 13.1 µM (inactive) | 33.3 µM (inactive) | 21.5 µM (inactive) |  | 17.1 µM (inactive) | 15.3 µM (inactive) | 12.4 µM (inactive) | 40.1 µM (inactive) | 29.2 µM (inactive) | 17.3 µM (inactive) | 20.6 µM (inactive) | 36.5 µM (inactive) | 17.5 µM (inactive) | 28.2 µM (inactive) |  |
| COc1cc2c(cc1OCCCCCOc1cc3c(cc1OC)C(=O)N1CCC[C@H]1CN3)N=C[C@@H]1CCCN1C2=O | 16.9 µM (inactive) | 2.48 µM (inactive) | 4.3 µM (inactive) | 13.7 | 2.15 µM (inactive) | 39.6 µM (inactive) | 6.14 µM (inactive) | 23.4 µM (inactive) | 2.79 µM (inactive) | 3.94 µM (inactive) | 19.5 µM (inactive) | 3.49 µM (inactive) | 11.2 µM (inactive) | 12.6 µM (inactive) | 4.03 µM (inactive) | 5.93 µM (inactive) | 1.56 µM (inactive) | 0.249 µM (active) | 11.1 µM (inactive) |  |
| Cc1cn(CC2=NCCCN2)c(=O)[nH]c1=O | > 100 µM (inactive) | > 100 µM (inactive) |  | > 100 | > 100 µM (inactive) | > 100 µM (inactive) | > 100 µM (inactive) | > 100 µM (inactive) | > 100 µM (inactive) | > 100 µM (inactive) | > 100 µM (inactive) | > 100 µM (inactive) | > 100 µM (inactive) |  | > 100 µM (inactive) | > 100 µM (inactive) | > 100 µM (inactive) | > 100 µM (inactive) | > 100 µM (inactive) | > 100 µM (inactive) |
| N[C@@H](Cc1ccccc1)C(=O)N1CCC[C@@H]1P(=O)(Oc1ccccc1)Oc1ccccc1 | > 100 µM (inactive) | > 100 µM (inactive) | > 100 µM (inactive) | > 100 | > 100 µM (inactive) | > 100 µM (inactive) | > 100 µM (inactive) | > 100 µM (inactive) | 78.2 µM (inactive) | > 100 µM (inactive) | > 100 µM (inactive) | 77.8 µM (inactive) | > 100 µM (inactive) | > 100 µM (inactive) | > 100 µM (inactive) | > 100 µM (inactive) | > 100 µM (inactive) |  | > 100 µM (inactive) | 39.3 µM (inactive) |
| Nc1ncn2c(n1)nc1ccccc12 | > 100 µM (inactive) | > 100 µM (inactive) | > 100 µM (inactive) | > 100 |  | 54.8 µM (inactive) | > 100 µM (inactive) | > 100 µM (inactive) | > 100 µM (inactive) | > 100 µM (inactive) | > 100 µM (inactive) | > 100 µM (inactive) | > 100 µM (inactive) |  | > 100 µM (inactive) | > 100 µM (inactive) | > 100 µM (inactive) | > 100 µM (inactive) | > 100 µM (inactive) |  |
| CC(C)(C)OC(=O)NC1CCCC1C(=O)C1=CCCC1 (stereo not given) | > 100 µM (inactive) | > 100 µM (inactive) | > 100 µM (inactive) | 59 | > 100 µM (inactive) |  |  | > 100 µM (inactive) | 65 µM (inactive) | > 100 µM (inactive) |  | > 100 µM (inactive) | > 100 µM (inactive) | > 100 µM (inactive) | > 100 µM (inactive) |  | 70.1 µM (inactive) | 90.8 µM (inactive) | > 100 µM (inactive) | 88.7 µM (inactive) |
| CCOC(=O)/C(=C\NC[C@@H](C)O)c1nc2ccccc2[nH]1 | > 100 µM (inactive) |  | 20.4 µM (inactive) | 73.3 | > 100 µM (inactive) | > 100 µM (inactive) | 61.1 µM (inactive) | 44.3 µM (inactive) | 29.5 µM (inactive) | > 100 µM (inactive) | 54.2 µM (inactive) |  | 57.3 µM (inactive) | 98.4 µM (inactive) | 32.4 µM (inactive) | > 100 µM (inactive) | 40.9 µM (inactive) | 0.0473 µM (active) | > 100 µM (inactive) | 37.4 µM (inactive) |
| Cc1nnc2c3c(-c4ccccc4)c(-c4ccccc4)oc3nc(N(C)C)n12 | 51.5 µM (inactive) | 96.6 µM (inactive) | 22.4 µM (inactive) | 23.7 |  | > 100 µM (inactive) | 37.6 µM (inactive) | > 100 µM (inactive) | 35.2 µM (inactive) | 90.4 µM (inactive) | > 100 µM (inactive) | 36.1 µM (inactive) | 72.1 µM (inactive) |  | 64.6 µM (inactive) |  | 39.2 µM (inactive) | 16.7 µM (inactive) | > 100 µM (inactive) | 29.4 µM (inactive) |
| CN(C)/N=N/c1nc2c(c(=O)n(C)c(=O)n2C)n1CC(O)CO (stereo not given) | > 100 µM (inactive) | > 100 µM (inactive) | > 100 µM (inactive) | > 100 | > 100 µM (inactive) | > 100 µM (inactive) | > 100 µM (inactive) | > 100 µM (inactive) | > 100 µM (inactive) | > 100 µM (inactive) | > 100 µM (inactive) | > 100 µM (inactive) | > 100 µM (inactive) | > 100 µM (inactive) | > 100 µM (inactive) | > 100 µM (inactive) | > 100 µM (inactive) |  | > 100 µM (inactive) | > 100 µM (inactive) |
| COc1ccc(-n2nnc3c(C#N)c(C)c(-c4ccccc4)n3c2=O)cc1 | 3.33 µM (inactive) | 2.3 µM (inactive) |  | 4.72 | 4.04 µM (inactive) | 2.84 µM (inactive) | 2.24 µM (inactive) | 2.84 µM (inactive) | 2.81 µM (inactive) | 1.94 µM (inactive) | > 43.2 µM (inactive) |  | 2.4 µM (inactive) | 1.16 µM (inactive) | 7.38 µM (inactive) | 3.95 µM (inactive) | 4.41 µM (inactive) | 1.96 µM (inactive) | 1.62 µM (inactive) | 3.56 µM (inactive) |
| COc1ccc(-c2cc(-c3ccc(O)cc3O)c(C#N)c(=O)[nH]2)cc1 | 18.6 µM (inactive) | 20.6 µM (inactive) | 29.7 µM (inactive) | 31.9 | 17.9 µM (inactive) | 15.2 µM (inactive) | 15.7 µM (inactive) | 19.6 µM (inactive) | 15.5 µM (inactive) | 18.5 µM (inactive) | 26.5 µM (inactive) | 25.2 µM (inactive) | 15.1 µM (inactive) | 20.5 µM (inactive) | 43.2 µM (inactive) | 23.1 µM (inactive) | 15.8 µM (inactive) | 16.7 µM (inactive) | 40.6 µM (inactive) |  |
| Nc1c(-c2nc3ccccc3s2)c2ccc([N+](=O)[O-])cc2c(=O)n1-c1cccc(C(=O)O)c1 |  | 23 µM (inactive) | 18.1 µM (inactive) | 27.4 |  |  |  | 33.1 µM (inactive) | 26.7 µM (inactive) | 31.7 µM (inactive) | 19 µM (inactive) |  | 21.4 µM (inactive) |  | 33 µM (inactive) |  | 21 µM (inactive) | 15.8 µM (inactive) | 23.3 µM (inactive) | 62.5 µM (inactive) |
| CCOP(=O)(OCC)/C(C#N)=C/c1ccc(-c2cc(C(F)(F)F)cc(C(F)(F)F)c2)o1 | 13.3 µM (inactive) | 14.8 µM (inactive) | 3.4 µM (inactive) | 6.38 | 14.5 µM (inactive) | 20.7 µM (inactive) | 1.82 µM (inactive) | 9.82 µM (inactive) |  | 12.2 µM (inactive) | 16.4 µM (inactive) | 3.3 µM (inactive) | 16.9 µM (inactive) | 8.02 µM (inactive) | 12.7 µM (inactive) |  |  | 7.43 µM (inactive) | 14.6 µM (inactive) | 8.45 µM (inactive) |
| COC(=O)[C@H](Cc1c[nH]c2ccccc12)NC(=O)c1ccc(CNC(=O)/C(C)=C/c2ccccc2)cc1 | > 100 µM (inactive) | > 100 µM (inactive) |  | 48.1 | 92.5 µM (inactive) | 57.3 µM (inactive) | 60.1 µM (inactive) | 52.8 µM (inactive) | 17.4 µM (inactive) | > 100 µM (inactive) | 29.6 µM (inactive) | > 100 µM (inactive) | 18.2 µM (inactive) | 28.6 µM (inactive) | 52.5 µM (inactive) | 13 µM (inactive) | 20.9 µM (inactive) | 28.6 µM (inactive) | 32.5 µM (inactive) | 15.6 µM (inactive) |
